The subject of the assay is acetylated microtubule in HEK293T cells. The experiment in a line: Microtubule-Stabilizing Activity Assay (acetylated microtubule immunoblot, HEK293T, colchicine challenge). The class given is cell-based. The following applies: 1 h pre-incubation, then colchicine 1 μM 3 h, relative to CNDR-51657 at 500 nM = 1.00; for Microtubule-Stabilizing Activity 50 nM: compound 50 nM; for Microtubule-Stabilizing Activity 500 nM: compound 500 nM. The protocol:
Compound solvent: 100% dimethyl sulfoxide (DMSO). Cell line: HEK293T (ATCC, CRL3216). Culture conditions: Cells were cultured in Dulbecco's Modified Eagle's Medium (DMEM) containing 10% fetal bovine serum and 1% penicillin/streptomycin. Cells were cultured at 37° C. in a Thermo-Fisher incubator with a humidified atmosphere of 5% carbon dioxide.
One day prior to the experiment, 100,000 cells were seeded at a density of 200,000 cells/ml in a 24-well plate.
On the day of the experiment, 20 μl of PBS phosphate buffer containing the test compound at experimental concentrations or an equivalent volume of DMSO was added to each well. After incubating at 37° C. for 1 hour, colchicine was added to each well at a final concentration of 1 μM, followed by an additional 3-hour incubation at 37° C. The plate was then placed on ice. The medium in each well was removed, and the cells were washed with ice-cold PBS. After aspirating the PBS, 0.1 mL of ice-cold RIPA lysis buffer (containing 0.5% sodium deoxycholate, 0.1% SDS, 1% NP-40, 5 mM EDTA, pH 8.0) was quickly added. Prior to use, a commercial protease inhibitor cocktail (1:500) and 1 μM deacetylase inhibitor Trichostatin A (Sangon Biotech Co., Ltd.) were added to the cell lysis buffer. The cell lysate were transferred to a 1.5 ml centrifuge tube, sonicated, and centrifuged at 13,000 rpm for 10 minutes. The supernatant was collected, and protein concentration was determined using the BCA assay.
Based on existing literature (Black, 1989; Kurt, 2011), acetylated microtubule was used as an indicator of microtubule polymerization to assess the microtubule-stabilizing efficacy of the compounds. HEK293T cell lysates were analyzed by SDS-PAGE (7.5% gel) and immunoblotted using acetylated microtubule antibody (1:20,000, Sigma-Aldrich, T7451) and α-microtubule antibody (1:2,000, Proteintech, 11224-1-AP). After incubation with fluorescent dye-conjugated IgG (1:40,000, Licor), the blots were visualized using an Odyssey-Dlx imaging system. Grayscale analysis was performed using ImageJ.
The compound activity was quantified with the microtubule-stabilizing activity of CNDR-51657 (C5) (Jane, 2016) at 500 nM as 1.00.

As for `CC(C)[C@@H](C)Nc1c(-c2c(F)cc(OCC3[C@H]4CNC[C@@H]34)cc2F)c(Cl)nc2ncnn12` (stereo partly drawn) [Example 21, 6-(4-(((1R,5S,6r)-3-Azabicyclo[3.1.0]hexan-6-yl)methoxy)-2,6-difluorophenyl)-5-chloro-N—((R)-3-methylbutan-2-yl)-[1,2,4]triazolo[1,5-a]pyrimidin-7-amine], the “Microtubule-Stabilizing Activity 50 nM” value is listed as 1.27 and the “Microtubule-Stabilizing Activity 500 nM” value came to 1.60.
On to `CC(C)[C@@H](C)Nc1c(-c2c(F)cc(OCC3[C@H]4CN(C)C[C@@H]34)cc2F)c(Cl)nc2ncnn12` (stereo partly drawn) [Example 22, 5-Chloro-6-(2,6-difluoro-4-(((1R,5S,6r)-3-methyl-3-azabicyclo[3.1.0]hex-6-yl)methoxy)phenyl)-N—((R)-3-methylbutan-2-yl)-[1,2,4]triazolo[1,5-a]pyrimidin-7-amine], for which the “Microtubule-Stabilizing Activity 50 nM” value was found to be 1.88 and the “Microtubule-Stabilizing Activity 500 nM” value amounted to 1.61.
As to `Cc1nc2ncnn2c(N[C@H](C)C(C)C)c1-c1c(F)cc(OCC2[C@H]3CNC[C@@H]23)cc1F` (stereo partly drawn) [Example 23, 6-(4-(((1R,5S,6r)-3-Azabicyclo[3.1.0]hex-6-yl)methoxy)-2,6-difluorophenyl)-5-methyl-N—((R)-3-methylbutan-2-yl)-[1,2,4]triazolo[1,5-a]pyrimidin-7-amine], the “Microtubule-Stabilizing Activity 50 nM” value was found to be 0.80 and the “Microtubule-Stabilizing Activity 500 nM” value was determined as 0.99.
The like results for `C[C@@H](Nc1c(-c2c(F)cc(OCC3[C@H]4CNC[C@@H]34)cc2F)c(Cl)nc2ncnn12)C1CCC1` (stereo partly drawn) [Example 26, 6-(4-(((1R,5S,6r)-3-Azabicyclo[3.1.0]hexan-6-yl)methoxy)-2,6-difluorophenyl)-5-chloro-N—((R)-1-cyclobutylethyl)-[1,2,4]triazolo[1,5-a]pyrimidin-7-amine] were, in that order, 1.35 and 1.41.
For `C[C@@H](Nc1c(-c2c(F)cc(OCC3[C@H]4CN(C)C[C@@H]34)cc2F)c(Cl)nc2ncnn12)C1CCC1` (stereo partly drawn) [Example 27, 5-Chloro-N—((R)-1-cyclobutylethyl)-6-(2,6-difluoro-4-(((1R,5S,6r)-3-methyl-3-azabicyclo[3.1.0]hexan-6-yl)methoxy)phenyl)-[1,2,4]triazolo[1,5-a]pyrimidin-7-amine] the same measures were 1.64 and 1.37.
As to `Cc1nc2ncnn2c(N[C@H](C)C2CCC2)c1-c1c(F)cc(OCC2[C@H]3CNC[C@@H]23)cc1F` (stereo partly drawn) [Example 28, 6-(4-(((1R,5S,6r)-3-Azabicyclo[3.1.0]hexan-6-yl)methoxy)-2,6-difluorophenyl)-5-methyl-N—((R)-1-cyclobutylethyl)-[1,2,4]triazolo[1,5-a]pyrimidin-7-amine], the “Microtubule-Stabilizing Activity 50 nM” value was determined as 1.65 and the “Microtubule-Stabilizing Activity 500 nM” value was determined as 1.43.
Regarding `CC(C)[C@@H](C)Nc1c(-c2c(F)cc(OC[C@@H]3[C@@H]4CNC[C@@H]43)cc2F)c(Cl)nc2ncnn12` [Example 29, 6-(4-(((1R,5S,6s)-3-Azabicyclo[3.1.0]hexan-6-yl)methoxy)-2,6-difluorophenyl)-5-chloro-N—((R)-3-methylbutan-2-yl)-[1,2,4]triazolo[1,5-a]pyrimidin-7-amine], the “Microtubule-Stabilizing Activity 50 nM” value was found to be 0.32 and the “Microtubule-Stabilizing Activity 500 nM” value was 1.69.
As for `CC(C)[C@@H](C)Nc1c(-c2c(F)cc(OC[C@H]3[C@H]4CN(C)C[C@@H]34)cc2F)c(Cl)nc2ncnn12` [Example 30, 5-Chloro-6-(2,6-difluoro-4-(((1R,5S,6s)-3-methyl-3-azabicyclo[3.1.0]hex-6-yl)methoxy)phenyl)-N—((R)-3-methylbutan-2-yl)-[1,2,4]triazolo[1,5-a]pyrimidin-7-amine], the “Microtubule-Stabilizing Activity 50 nM” value turned out to be 0.09 and the “Microtubule-Stabilizing Activity 500 nM” value was 0.97.
For `C[C@H](Nc1c(-c2c(F)cc(OC[C@@H]3[C@@H]4CNC[C@@H]43)cc2F)c(Cl)nc2ncnn12)C(F)(F)F` [Example 31, 6-(4-(((1R,5S,6s)-3-Azabicyclo[3.1.0]hex-6-yl)methoxy)-2,6-difluorophenyl)-5-chloro-N—((S)-1,1,1-trifluoropropan-2-yl)-[1,2,4]triazolo[1,5-a]pyrimidin-7-amine] the same measures were 0.35 and 1.25.
For `C[C@H](Nc1c(-c2c(F)cc(OC[C@H]3[C@H]4CN(C)C[C@@H]34)cc2F)c(Cl)nc2ncnn12)C(F)(F)F` [Example 32, 5-Chloro-6-(2,6-difluoro-4-(((1R,5S,6s)-3-methyl-3-azabicyclo[3.1.0]hexan-6-yl)methoxy)phenyl)-N—((S)-1,1,1-trifluoropropan-2-yl)-[1,2,4]triazolo[1,5-a]pyrimidin-7-amine] the same measures were 0.07 and 2.51.
For `Fc1cc(OC[C@H]2[C@@H]3CNC[C@@H]32)cc(F)c1-c1c(Cl)nc2ncnn2c1NCC(F)(F)F` [Example 33, 6-(4-(((1R,5S,6r)-3-azabicyclo[3.1.0]hexan-6-yl)methoxy)-2,6-difluorophenyl)-5-chloro-N-(2,2,2-trifluoroethyl)-[1,2,4]triazolo[1,5-a]pyrimidin-7-amine], the “Microtubule-Stabilizing Activity 50 nM” value came to 1.46 and the “Microtubule-Stabilizing Activity 500 nM” value is 1.64.
As for `CN1C[C@@H]2[C@@H](COc3cc(F)c(-c4c(Cl)nc5ncnn5c4NCC(F)(F)F)c(F)c3)[C@@H]2C1` [Example 34, 5-Chloro-6-(2,6-difluoro-4-(((1R,5S,6r)-3-methyl-3-azabicyclo[3.1.0]hexan-6-yl)methoxy)phenyl)-N-(2,2,2-trifluoroethyl)-[1,2,4]triazolo[1,5-a]pyrimidin-7-amine], the “Microtubule-Stabilizing Activity 50 nM” value is on record as 1.05 and the “Microtubule-Stabilizing Activity 500 nM” value is 2.10.
Regarding `CC(C)[C@@H](C)Nc1c(-c2c(F)cc(O[C@H]3C[C@H]4CNC[C@H]4C3)cc2F)c(Cl)nc2ncnn12` [Example 36, 5-Chloro-6-(2,6-difluoro-4-(((3aR,5r,6aS)-octahydrocyclopenta[c]pyrrol-5-yl)oxy)phenyl)-N—((R)-3-methylbutan-2-yl)-[1,2,4]triazolo[1,5-a]pyrimidin-7-amine], the “Microtubule-Stabilizing Activity 50 nM” value came to 0.47 and the “Microtubule-Stabilizing Activity 500 nM” value turned out to be 0.37.
Consider `CC(C)[C@@H](C)Nc1c(-c2c(F)cc(O[C@@H]3C[C@@H]4CN(C)C[C@@H]4C3)cc2F)c(Cl)nc2ncnn12` [Example 37, 5-Chloro-6-(2,6-difluoro-4-(((3aR,5r,6aS)-2-methyloctahydrocyclopenta[c]pyrrol-5-yl)oxy)phenyl)-N—((R)-3-methylbutan-2-yl)-[1,2,4]triazolo[1,5-a]pyrimidin-7-amine], for which the “Microtubule-Stabilizing Activity 50 nM” value was found to be 0.16 and the “Microtubule-Stabilizing Activity 500 nM” value came to 0.17.
For `C[C@H](Nc1c(-c2c(F)cc(O[C@H]3C[C@H]4CNC[C@H]4C3)cc2F)c(Cl)nc2ncnn12)C(F)(F)F` [Example 38, 5-Chloro-6-(2,6-difluoro-4-(((3aR,5r,6aS)-octahydrocyclopenta[c]pyrrol-5-yl)oxy)phenyl)-N—((S)-1,1,1-trifluoropropan-2-yl)-[1,2,4]triazolo[1,5-a]pyrimidin-7-amine] the same measures were 0.31 and 0.95.

Source of the values: US20260226064A1, “POLYCYCLIC COMPOUND FOR TREATING NEUROLOGICAL DISEASES AND TUMORS” (Shanghai Institute of Organic Chemistry, Chinese Academy of …, priority 2023, published 2026).
